In patent publication US20190343953A1, “ANTI-CANCER TREATMENTS WITH AN ANTI-MUC1 ANTIBODY AND AN ERBB INHIBITOR” (Glycotope GmbH, priority 2017, published 2019):

Tested on: cancer cells
Assay: Cytotoxicity assay of SeeloMab (PankoMab-ADC), statements for the cancer cells in general
Type: cell-based, human
Conditions: pretreated for 3 days vs non-pretreated
Procedure: The cytotoxic potential of a TA-MUC1 targeting antibody drug conjugate (ADC) was investigated using SeeloMab, the ADC format of PankoMab with a microtubule inhibitor as toxin. Therefore, cells were pre-incubated for 3 days with an optimum concentration of EGFR inhibitor. […] After 3 days the antigen expression was confirmed by flow cytometry and cells were seeded at equal cell density (5000 cells/well) into the wells of a microtiter plate. Cells were incubated with different concentrations of SeeloMab, an isotype matched control ADC and unconjugated PankoMab served as negative control. After 4 days viability of the cells was measured using Celltiter-Glo Luminescent Cell Viability Assay (Promega) and percent proliferation was calculated relative to medium control.

C#Cc1cccc(Nc2ncnc3cc(OCCOC)c(OCCOC)cc23)c1 [Erlotinib]
reduction of proliferation by anti-TA-MUC1 ADC when cancer cells were pretreated with EGFR inhibitor: significantly stronger
